Columns and labels:
[1] = Crystal form of the recrystallized solid after drying/heating, by powder X-ray diffraction; format: physicochemical
Method: Solids from the recrystallization were prepared according to the methods described above and analyzed under standard conditions with a calibrated Scintag X-ray diffraction system.
The wet solid was allowed to dry at room temperature. The air-dried sample was analyzed and the powder X-ray diffraction data was consistent with the powder X-ray diffraction pattern of a 6-O-methylerythromycin A Form III crystal structure. The air-dried sample was heated to a temperature between about 40° C. to about 45° C. in a calibrated vacuum oven for five days at atmospheric pressure.
A wet solid sample obtained from the recrystallization was heated in a calibrated convection oven to a temperature between about 100° C. and 105° C. […] The testing conditions and the corresponding result are summarized below in Table 1.
Crystallographic data was obtained by solvate single crystal analysis using a Scintag XDS-2000 powder X-ray diffraction system. Samples for X-ray diffraction analysis were prepared by spreading the sample powder (with no prior grinding required) in a thin layer on the sample holder and gently flattening the sample with a microscope slide. A Scintag X-ray Diffraction system was used with the following parameters: X-ray source is CuKα; range is 2-35°; scan rate is 1.00 degree/minute; step size is 0.0300 degree; and wavelength is 1.54060 angstroms.

[2] = Thermogravimetric analysis of the Form III solvate; format: physicochemical; details: 6 milligram sample, nitrogen purge, increase of 5° C. per minute (FIG. 4)
Method: Suitable temperatures for the conversion of the Form III solvate to the Form II crystal structure of 6-O-methylerythromycin A can vary depending on the conditions of the reaction. […] At atmospheric pressure, the preferred temperatures for the conversion of the Form III solvate to Form II are from about 80° C. to about 180° C. The more preferred temperatures for the conversion are from about 90° C. to about 105° C. Thermogravimetric analysis was conducted in the following manner. A T.A. Instruments Hi-Res thermogravimetric analyzer with Thermogravimetric Analyzer module 2950 was used along with DuPont 2100 TGA software version 5.1 A. The analysis parameters were: sample weight 6.3640 milligrams; heating rate was room temperature to 200° C. at 5° C./minute under a nitrogen purge.

## CC[C@H]1OC(=O)[C@H](C)[C@@H](OC2CC(C)(OC)C(O)C(C)O2)[C@H](C)[C@@H](OC2OC(C)CC(N(C)C)C2O)[C@@](C)(OC)C[C@@H](C)C(=O)[C@H](C)[C@@H](O)[C@]1(C)O (some centres unmarked) [Sample 2, 6-O-methylerythromycin A acetonitrile solvate]
[1]; air dried solid, room temperature
  Analytical Result (crystal form by powder X-ray diffraction): Form III spectra

## CC[C@H]1OC(=O)[C@H](C)[C@@H](OC2CC(C)(OC)C(O)C(C)O2)[C@H](C)[C@@H](OC2OC(C)CC(N(C)C)C2O)[C@@](C)(OC)C[C@@H](C)C(=O)[C@H](C)[C@@H](O)[C@]1(C)O (some centres unmarked) [Sample 4, 6-O-methylerythromycin A]
[1]; heat to 100° C.-105° C., 24 hours
  Analytical Result (crystal form by powder X-ray diffraction): Form II spectra

## CC[C@H]1OC(=O)[C@H](C)[C@@H](OC2CC(C)(OC)C(O)C(C)O2)[C@H](C)[C@@H](OC2OC(C)CC(N(C)C)C2O)[C@@](C)(OC)C[C@@H](C)C(=O)[C@H](C)[C@@H](O)[C@]1(C)O (some centres unmarked) [Form III solvate, 6-O-methylerythromycin A acetonitrile solvate]
[2]
  Temperature of conversion of Form III solvate to Form II crystal structure: about 175 °C

## CC[C@H]1OC(=O)[C@H](C)[C@@H](OC2CC(C)(OC)C(O)C(C)O2)[C@H](C)[C@@H](OC2OC(C)CC(N(C)C)C2O)[C@@](C)(OC)C[C@@H](C)C(=O)[C@H](C)[C@@H](O)[C@]1(C)O (some centres unmarked) [Sample 1, 6-O-methylerythromycin A acetonitrile solvate]
[1]; wet solid from acetonitrile recrystallization
  Analytical Result (crystal form by powder X-ray diffraction): Form III spectra

## CC[C@H]1OC(=O)[C@H](C)[C@@H](OC2CC(C)(OC)C(O)C(C)O2)[C@H](C)[C@@H](OC2OC(C)CC(N(C)C)C2O)[C@@](C)(OC)C[C@@H](C)C(=O)[C@H](C)[C@@H](O)[C@]1(C)O (some centres unmarked) [Sample 3, 6-O-methylerythromycin A acetonitrile solvate]
[1]; heat 40° C.-45° C., 5 days
  Analytical Result (crystal form by powder X-ray diffraction): Form III spectra

Source: US6627743B1, “6-O-methylerythromycin A crystal form III” (Abbott Laboratories, priority 1999, dated 2003)
